Experimental data taken from patent US12679878B2, “CRF2 receptor agonists and their use in therapy” (SANOFI, priority 2020, dated 2026).
Read-outs that look alike come from different tables or passages of the source. Starred links: 1 amine or outer side, 2 acyl side, 3 side chain; linkers in the order of their positions; H or OH if unused. Non-standard residues stand in square brackets, D forms with d. Residues, ends and D or L forms follow the SMILES beside them. Groups on a side chain read outwards from the residue. *: point of attachment. C18 diacid = O=C(O)CCCCCCCCCCCCCCCCC(=O)*; γGlu = O=C(O)[C@H](CCC(=O)[*:2])N[*:1]; AEEA = NCCOCCOCC(=O)O; Aib = CC(C)(N)C(=O)O

How the values were obtained:
CRF1R receptor = target: T1, CRF1R receptor (Homo sapiens, UniProt P34998); experiment: cAMP activity at anti-target CRF1R, CHO-K1 cell line clone 2 (Example 19.10); assay type: cell-based; conditions: CRF1R CHO-K1 clone 2; for EC50: 0% HSA, read-out: EC50 [nM] 0% HSA; for Emax: 100% = Sauvagine at 100 nM
T1 construct: host or cells: CHO-K1 clone 2
T1 sequence (P34998 24-415): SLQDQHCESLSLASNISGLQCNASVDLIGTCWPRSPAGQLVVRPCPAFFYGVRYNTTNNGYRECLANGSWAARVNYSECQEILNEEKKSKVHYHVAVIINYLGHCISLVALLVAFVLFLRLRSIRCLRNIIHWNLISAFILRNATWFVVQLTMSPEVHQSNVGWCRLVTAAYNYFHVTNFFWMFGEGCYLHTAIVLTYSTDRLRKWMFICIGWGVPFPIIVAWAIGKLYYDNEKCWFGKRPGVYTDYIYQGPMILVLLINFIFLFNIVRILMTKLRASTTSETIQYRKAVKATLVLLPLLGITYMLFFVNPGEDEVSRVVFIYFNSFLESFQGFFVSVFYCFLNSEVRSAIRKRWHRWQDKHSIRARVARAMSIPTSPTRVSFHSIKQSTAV
Summary of the method: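 The cAMP read-out used the same protocol as the previous assay, except that Sauvagine at 100 nM set the 100% activation control. Cells were CHO-K1 clone 2 overexpressing CRF1R, cultured in F12 medium with 10% FBS and G418 and stored frozen until use.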

human CRF2α receptor = target: T2, human CRF2α receptor (Homo sapiens, UniProt Q13324); experiment: cAMP agonism at human CRF2 α receptor in TeloHEAC cells (Example 7); assay type: cell-based; conditions: cAMP HTRF, TeloHEAC cells stably expressing human CRF2 α
T2 construct: expressed in transfected cells; host or cells: TeloHEAC
T2 sequence (Q13324 1-411): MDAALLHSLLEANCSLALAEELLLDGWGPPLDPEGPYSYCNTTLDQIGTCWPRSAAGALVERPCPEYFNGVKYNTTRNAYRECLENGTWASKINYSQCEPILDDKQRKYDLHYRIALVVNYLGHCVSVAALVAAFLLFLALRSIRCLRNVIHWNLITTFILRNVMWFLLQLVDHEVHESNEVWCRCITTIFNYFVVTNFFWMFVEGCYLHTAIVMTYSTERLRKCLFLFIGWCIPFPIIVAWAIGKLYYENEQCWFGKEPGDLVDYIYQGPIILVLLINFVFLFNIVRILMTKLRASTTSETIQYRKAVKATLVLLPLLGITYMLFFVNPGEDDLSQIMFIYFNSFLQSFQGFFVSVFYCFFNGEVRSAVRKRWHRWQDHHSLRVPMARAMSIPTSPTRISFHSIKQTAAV
Summary of the method: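 Percent activation was referenced to 1000 nM UCN2 (100%), and EC50 values taken as concentrations giving half of maximal response. The read-out was a homogeneous time-resolved fluorescence cAMP kit, fluorescence ratio 665/620 nm. Thawed cells (2000/well) saw compound for 30 min at RT in buffer with 2 mM IBMX and 0%/0.1% HSA.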

[1] = 0% HSA, read-out: EC50 [nM], 0% HSA

Structure (SMILES)	EC50 (CRF1R receptor) [nM]	Emax (CRF1R receptor) [%]	EC50 (human CRF2α receptor; [1]) [nM]	EC50 (human CRF2α receptor; 0.1% HSA, read-out: EC50 [nM], 0.1% HSA) [nM]
CC[C@H](C)[C@H](N)C(=O)N[C@H](C(=O)N[C@@H](CC(C)C)C(=O)N[C@@H](CO)C(=O)N[C@@H](CC(C)C)C(=O)N[C@@H](CC(=O)O)C(=O)N[C@H](C(=O)N1CCC[C@H]1C(=O)N[C@H](C(=O)N[C@@H](CCCCN)C(=O)N[C@@H](CC(C)C)C(=O)N[C@@H](CCCCNC(=O)COCCOCCNC(=O)COCCOCCNC(=O)CC[C@H](NC(=O)CCCCCCCCCCCCCCCCC(=O)O)C(=O)O)C(=O)N[C@@H](CCC(N)=O)C(=O)N[C@H](C(=O)N[C@@H](CC(C)C)C(=O)N[C@@H](CC(C)C)C(=O)N[C@@H](CCCCN)C(=O)N[C@@H](CCC(N)=O)C(=O)N[C@@H](CCC(=O)O)C(=O)N[C@@H](CCCNC(=N)N)C(=O)N[C@@H](CCC(N)=O)C(=O)N[C@@H](CCCCN)C(=O)NC(C)(C)C(=O)N[C@@H](CCC(N)=O)C(=O)N[C@@H](CCCNC(=N)N)C(=O)N[C@@H](CCC(N)=O)C(=O)N[C@@H](CCC(N)=O)C(=O)N[C@@H](C)C(=O)N[C@@H](CCC(=O)O)C(=O)N[C@H](C(=O)N[C@@H](CC(N)=O)C(=O)N[C@@H](CCCCN)C(=O)N[C@@H](CCC(N)=O)C(=O)N[C@H](C(=O)N[C@@H](CC(C)C)C(=O)N[C@@H](C)C(=O)N[C@@H](CCC(N)=O)C(=O)N[C@H](C(N)=O)C(C)C)[C@@H](C)CC)[C@@H](C)O)[C@@H](C)CC)[C@@H](C)CC)C(C)C)C(C)C [compound 110] (H-IVLSLDVPIKLK([AEEA-AEEA-γGlu-C18 diacid])QILLKQERQK[Aib]QRQQAETNKQILAQV-NH2; N-terminus assumed)	> 100	5.4	0.18	–
CC[C@H](C)[C@H](N)C(=O)N[C@H](C(=O)N[C@@H](CC(C)C)C(=O)N[C@@H](CO)C(=O)N[C@@H](CC(C)C)C(=O)N[C@@H](CC(=O)O)C(=O)N[C@H](C(=O)N1CCC[C@H]1C(=O)N[C@H](C(=O)N[C@@H](CCCCN)C(=O)N[C@@H](CC(C)C)C(=O)N[C@@H](CCCCNC(=O)COCCOCCNC(=O)COCCOCCNC(=O)CC[C@H](NC(=O)CCCCCCCCCCCCCCCCC(=O)O)C(=O)O)C(=O)N[C@@H](CCC(N)=O)C(=O)N[C@H](C(=O)N[C@@H](CC(C)C)C(=O)N[C@@H](CC(C)C)C(=O)N[C@@H](CCCCN)C(=O)N[C@@H](CCC(N)=O)C(=O)N[C@@H](CCC(=O)O)C(=O)N[C@@H](CCCNC(=N)N)C(=O)N[C@@H](CCC(N)=O)C(=O)N[C@@H](CCCCN)C(=O)NC(C)(C)C(=O)N[C@@H](CCC(N)=O)C(=O)N[C@@H](CCCNC(=N)N)C(=O)N[C@@H](CCC(=O)O)C(=O)N[C@@H](CCCCN)C(=O)N[C@@H](C)C(=O)N[C@@H](CCC(=O)O)C(=O)N[C@@H](CCCCN)C(=O)N[C@@H](CC(N)=O)C(=O)N[C@@H](CCCCN)C(=O)N[C@@H](CCC(N)=O)C(=O)N[C@H](C(=O)N[C@@H](CC(C)C)C(=O)N[C@@H](C)C(=O)N[C@@H](CCC(N)=O)C(=O)N[C@H](C(N)=O)C(C)C)[C@@H](C)CC)[C@@H](C)CC)[C@@H](C)CC)C(C)C)C(C)C [compound 116] (H-IVLSLDVPIKLK([AEEA-AEEA-γGlu-C18 diacid])QILLKQERQK[Aib]QREKAEKNKQILAQV-NH2; N-terminus assumed)	> 100	0.8	0.7	–
CC[C@H](C)[C@H](N)C(=O)N[C@H](C(=O)N[C@@H](CC(C)C)C(=O)N[C@@H](CO)C(=O)N[C@@H](CC(C)C)C(=O)N[C@@H](CC(=O)O)C(=O)N[C@H](C(=O)N1CCC[C@H]1C(=O)N[C@H](C(=O)N[C@@H](CCCCN)C(=O)N[C@@H](CC(C)C)C(=O)N[C@@H](CCCCNC(=O)COCCOCCNC(=O)COCCOCCNC(=O)CC[C@H](NC(=O)CCCCCCCCCCCCCCCCC(=O)O)C(=O)O)C(=O)N[C@@H](CCC(N)=O)C(=O)N[C@H](C(=O)N[C@@H](CC(C)C)C(=O)N[C@@H](CC(C)C)C(=O)N[C@@H](CCCCN)C(=O)N[C@@H](CCC(N)=O)C(=O)N[C@@H](CCC(=O)O)C(=O)N[C@@H](CCCNC(=N)N)C(=O)N[C@@H](CCC(N)=O)C(=O)N[C@@H](CCCCN)C(=O)NC(C)(C)C(=O)N[C@@H](CCC(N)=O)C(=O)N[C@@H](CCCNC(=N)N)C(=O)N[C@@H](CCC(N)=O)C(=O)N[C@@H](CCC(N)=O)C(=O)N[C@@H](C)C(=O)N[C@@H](CCC(=O)O)C(=O)N[C@@H](CCCCN)C(=O)N[C@@H](CC(N)=O)C(=O)N[C@@H](CCCCN)C(=O)N[C@@H](CCC(N)=O)C(=O)N[C@H](C(=O)N[C@@H](CC(C)C)C(=O)N[C@@H](C)C(=O)N[C@@H](CCC(N)=O)C(=O)N[C@H](C(N)=O)C(C)C)[C@@H](C)CC)[C@@H](C)CC)[C@@H](C)CC)C(C)C)C(C)C [compound 117] (H-IVLSLDVPIKLK([AEEA-AEEA-γGlu-C18 diacid])QILLKQERQK[Aib]QRQQAEKNKQILAQV-NH2)	> 100	-6	0.11	–
CC[C@H](C)[C@H](N)C(=O)N[C@H](C(=O)N[C@@H](CC(C)C)C(=O)N[C@@H](CO)C(=O)N[C@@H](CC(C)C)C(=O)N[C@@H](CC(=O)O)C(=O)N[C@@H](C(=O)N1CCC[C@H]1C(=O)N[C@H](C(=O)N[C@@H](CCCCN)C(=O)N[C@@H](CC(C)C)C(=O)N[C@@H](CCCCNC(=O)COCCOCCNC(=O)COCCOCCNC(=O)CC[C@H](NC(=O)CCCCCCCCCCCCCCCCC(=O)O)C(=O)O)C(=O)N[C@@H](CCC(N)=O)C(=O)N[C@H](C(=O)N[C@@H](CC(C)C)C(=O)N[C@@H](CC(C)C)C(=O)N[C@@H](CCCCN)C(=O)N[C@@H](CCC(N)=O)C(=O)N[C@@H](CCC(=O)O)C(=O)N[C@@H](CCCNC(=N)N)C(=O)N[C@@H](CCC(N)=O)C(=O)N[C@@H](CCCCN)C(=O)NC(C)(C)C(=O)N[C@@H](CCC(N)=O)C(=O)N[C@@H](CCCNC(=N)N)C(=O)N[C@@H](CCC(N)=O)C(=O)N[C@@H](CCCCN)C(=O)N[C@@H](C)C(=O)N[C@@H](CCC(=O)O)C(=O)N[C@@H](CCCCN)C(=O)N[C@@H](CC(N)=O)C(=O)N[C@@H](CCCCN)C(=O)N[C@@H](CCC(N)=O)C(=O)N[C@H](C(=O)N[C@@H](CC(C)C)C(=O)N[C@@H](C)C(=O)N[C@@H](CCC(N)=O)C(=O)N[C@H](C(N)=O)C(C)C)[C@@H](C)CC)[C@@H](C)CC)[C@@H](C)CC)C(C)C)C(C)C [compound 118] (H-IVLSLD[dV]PIKLK([AEEA-AEEA-γGlu-C18 diacid])QILLKQERQK[Aib]QRQKAEKNKQILAQV-NH2; N-terminus assumed)	> 100	1.5	0.04	2.13
